Key:
Type in all cases: functional
Settings in all cases: read-out: Activity
UACC-257 = assay: Growth inhibition of human UACC-257 cells assessed as cell growth at 10 uM incubated for 48 hrs by sulforhodamine B assay relative to control
SNB-19 = assay: Growth inhibition of human SNB-19 cells assessed as cell growth at 10 uM incubated for 48 hrs by sulforhodamine B assay relative to control
U-251 = assay: Growth inhibition of human U-251 cells assessed as cell growth at 10 uM incubated for 48 hrs by sulforhodamine B assay relative to control
SR = assay: Growth inhibition of human SR cells assessed as cell growth at 10 uM incubated for 48 hrs by sulforhodamine B assay relative to control
CCRF-CEM = assay: Growth inhibition of human CCRF-CEM cells assessed as cell growth at 10 uM incubated for 48 hrs by sulforhodamine B assay relative to control
MDA-MB-231 = assay: Growth inhibition of human MDA-MB-231 cells assessed as cell growth at 10 uM incubated for 48 hrs by sulforhodamine B assay relative to control
DU-145 = assay: Growth inhibition of human DU-145 cells assessed as cell growth at 10 uM incubated for 48 hrs by sulforhodamine B assay relative to control
ACHN = assay: Growth inhibition of human ACHN cells assessed as cell growth at 10 uM incubated for 48 hrs by sulforhodamine B assay relative to control
OVCAR-3 = assay: Growth inhibition of human OVCAR-3 cells assessed as cell growth at 10 uM incubated for 48 hrs by sulforhodamine B assay relative to control
EKVX = assay: Growth inhibition of human EKVX cells assessed as cell growth at 10 uM incubated for 48 hrs by sulforhodamine B assay relative to control
IGROV-1 = assay: Growth inhibition of human IGROV-1 cells assessed as cell growth at 10 uM incubated for 48 hrs by sulforhodamine B assay relative to control
SK-MEL-2 = assay: Growth inhibition of human SK-MEL-2 cells assessed as cell growth at 10 uM incubated for 48 hrs by sulforhodamine B assay relative to control
UO-31 = assay: Growth inhibition of human UO-31 cells assessed as cell growth at 10 uM incubated for 48 hrs by sulforhodamine B assay relative to control
MDA-MB-435 = assay: Growth inhibition of human MDA-MB-435 cells assessed as cell growth at 10 uM incubated for 48 hrs by sulforhodamine B assay relative to control
HT-29 = assay: Growth inhibition of human HT-29 cells assessed as cell growth at 10 uM incubated for 48 hrs by sulforhodamine B assay relative to control
SK-OV-3 = assay: Growth inhibition of human SK-OV-3 cells assessed as cell growth at 10 uM incubated for 48 hrs by sulforhodamine B assay relative to control
HOP-62 = assay: Growth inhibition of human HOP-62 cells assessed as cell growth at 10 uM incubated for 48 hrs by sulforhodamine B assay relative to control
RPMI-8226 = assay: Growth inhibition of human RPMI-8226 cells assessed as cell growth at 10 uM incubated for 48 hrs by sulforhodamine B assay relative to control
KM12 = assay: Growth inhibition of human KM12 cells assessed as cell growth at 10 uM incubated for 48 hrs by sulforhodamine B assay relative to control
OVCAR-5 = assay: Growth inhibition of human OVCAR-5 cells assessed as cell growth at 10 uM incubated for 48 hrs by sulforhodamine B assay relative to control
NCI-H226 = assay: Growth inhibition of human NCI-H226 cells assessed as cell growth at 10 uM incubated for 48 hrs by sulforhodamine B assay relative to control
HCT-116 = assay: Growth inhibition of human HCT-116 cells assessed as cell growth at 10 uM incubated for 48 hrs by sulforhodamine B assay relative to control
COLO 205 = assay: Growth inhibition of human COLO 205 cells assessed as cell growth at 10 uM incubated for 48 hrs by sulforhodamine B assay relative to control
786-0 = assay: Growth inhibition of human 786-0 cells assessed as cell growth at 10 uM incubated for 48 hrs by sulforhodamine B assay relative to control
SW-620 = assay: Growth inhibition of human SW-620 cells assessed as cell growth at 10 uM incubated for 48 hrs by sulforhodamine B assay relative to control
K562 = assay: Growth inhibition of human K562 cells assessed as cell growth at 10 uM incubated for 48 hrs by sulforhodamine B assay relative to control
UACC-62 = assay: Growth inhibition of human UACC-62 cells assessed as cell growth at 10 uM incubated for 48 hrs by sulforhodamine B assay relative to control
SK-MEL-5 = assay: Growth inhibition of human SK-MEL-5 cells assessed as cell growth at 10 uM incubated for 48 hrs by sulforhodamine B assay relative to control
SK-MEL-28 = assay: Growth inhibition of human SK-MEL-28 cells assessed as cell growth at 10 uM incubated for 48 hrs by sulforhodamine B assay relative to control
MDA-MB-468 = assay: Growth inhibition of human MDA-MB-468 cells assessed as cell growth at 10 uM incubated for 48 hrs by sulforhodamine B assay relative to control
PC-3 = assay: Growth inhibition of human PC-3 cells assessed as cell growth at 10 uM incubated for 48 hrs by sulforhodamine B assay relative to control
Malme-3M = assay: Growth inhibition of human Malme-3M cells assessed as cell growth at 10 uM incubated for 48 hrs by sulforhodamine B assay relative to control
SF-268 = assay: Growth inhibition of human SF-268 cells assessed as cell growth at 10 uM incubated for 48 hrs by sulforhodamine B assay relative to control
HCT-15 = assay: Growth inhibition of human HCT-15 cells assessed as cell growth at 10 uM incubated for 48 hrs by sulforhodamine B assay relative to control
MOLT-4 = assay: Growth inhibition of human MOLT-4 cells assessed as cell growth at 10 uM incubated for 48 hrs by sulforhodamine B assay relative to control
NCI-H23 = assay: Growth inhibition of human NCI-H23 cells assessed as cell growth at 10 uM incubated for 48 hrs by sulforhodamine B assay relative to control
LOX IMVI = assay: Growth inhibition of human LOX IMVI cells assessed as cell growth at 10 uM incubated for 48 hrs by sulforhodamine B assay relative to control
M14 = assay: Growth inhibition of human M14 cells assessed as cell growth at 10 uM incubated for 48 hrs by sulforhodamine B assay relative to control
OVCAR-8 = assay: Growth inhibition of human OVCAR-8 cells assessed as cell growth at 10 uM incubated for 48 hrs by sulforhodamine B assay relative to control
RXF 393 = assay: Growth inhibition of human RXF 393 cells assessed as cell growth at 10 uM incubated for 48 hrs by sulforhodamine B assay relative to control

`CC(=O)Nc1cc(CO[Si](C)(C)C(C)(C)C)cc(NC(=O)c2ccc(C(=O)Nc3cccc(NC(=O)CCCN(C)C)c3)cc2)c1` gave a growth at 10 µM (UACC-257) of 87%, a growth at 10 µM (SNB-19) of 100% and a growth at 10 µM (U-251) of 87%. For the same molecule, the growth at 10 µM (SR) was 108%, the growth at 10 µM (CCRF-CEM) was 109% and the growth at 10 µM (MDA-MB-231) was 99%. The growth at 10 µM (DU-145) was 97%, the growth at 10 µM (ACHN) was 90% and the growth at 10 µM (OVCAR-3) was 104%. It also gave a growth at 10 µM (EKVX) of 91%, a growth at 10 µM (IGROV-1) of 90% and a growth at 10 µM (SK-MEL-2) of 102%. For the same molecule, the growth at 10 µM (UO-31) was 105%, the growth at 10 µM (MDA-MB-435) was 96% and the growth at 10 µM (HT-29) was 106%. The growth at 10 µM (SK-OV-3) was 103%, the growth at 10 µM (HOP-62) was 92% and the growth at 10 µM (RPMI-8226) was 106%. It also gave a growth at 10 µM (KM12) of 95%, a growth at 10 µM (OVCAR-5) of 80% and a growth at 10 µM (NCI-H226) of 85%. It also gave a growth at 10 µM (HCT-116) of 99%, a growth at 10 µM (COLO 205) of 98% and a growth at 10 µM (786-0) of 95%. The growth at 10 µM (SW-620) was 99%, the growth at 10 µM (K562) was 93% and the growth at 10 µM (UACC-62) was 89%. For the same molecule, the growth at 10 µM (SK-MEL-5) was 89%, the growth at 10 µM (SK-MEL-28) was 87% and the growth at 10 µM (MDA-MB-468) was 89%. It also gave a growth at 10 µM (PC-3) of 97%, a growth at 10 µM (Malme-3M) of 88% and a growth at 10 µM (SF-268) of 94%. For the same molecule, the growth at 10 µM (HCT-15) was 85%, the growth at 10 µM (MOLT-4) was 91% and the growth at 10 µM (NCI-H23) was 90%. The growth at 10 µM (LOX IMVI) was 82%, the growth at 10 µM (M14) was 90% and the growth at 10 µM (OVCAR-8) was 93%. It also gave a growth at 10 µM (RXF 393) of 95%.
With `CC(=O)Nc1cc(CO)cc(NC(=O)c2ccc(NC(=O)CCCN3CCOCC3)cc2)c1` the growth at 10 µM (UACC-257) was 106%, the growth at 10 µM (SNB-19) was 99.4% and the growth at 10 µM (U-251) was 105%. For the same molecule, the growth at 10 µM (SR) was 108%, the growth at 10 µM (CCRF-CEM) was 87% and the growth at 10 µM (MDA-MB-231) was 102%. For the same molecule, the growth at 10 µM (DU-145) was 115%, the growth at 10 µM (ACHN) was 109% and the growth at 10 µM (OVCAR-3) was 121%. It also gave a growth at 10 µM (EKVX) of 103%, a growth at 10 µM (IGROV-1) of 126% and a growth at 10 µM (SK-MEL-2) of 101%. It also gave a growth at 10 µM (UO-31) of 86.6%, a growth at 10 µM (MDA-MB-435) of 100% and a growth at 10 µM (HT-29) of 104%. It also gave a growth at 10 µM (SK-OV-3) of 104%, a growth at 10 µM (HOP-62) of 101% and a growth at 10 µM (RPMI-8226) of 93.6%. It also gave a growth at 10 µM (KM12) of 109%, a growth at 10 µM (OVCAR-5) of 106% and a growth at 10 µM (NCI-H226) of 95.6%. For the same molecule, the growth at 10 µM (HCT-116) was 104%, the growth at 10 µM (COLO 205) was 106% and the growth at 10 µM (786-0) was 97%. The growth at 10 µM (SW-620) was 103%, the growth at 10 µM (K562) was 96.7% and the growth at 10 µM (UACC-62) was 98.3%. The growth at 10 µM (SK-MEL-5) was 100%, the growth at 10 µM (SK-MEL-28) was 113% and the growth at 10 µM (MDA-MB-468) was 97.8%. It also gave a growth at 10 µM (PC-3) of 104%, a growth at 10 µM (Malme-3M) of 130% and a growth at 10 µM (SF-268) of 110%. It also gave a growth at 10 µM (HCT-15) of 103%, a growth at 10 µM (MOLT-4) of 99.5% and a growth at 10 µM (NCI-H23) of 98.3%. It also gave a growth at 10 µM (LOX IMVI) of 110%, a growth at 10 µM (M14) of 103% and a growth at 10 µM (OVCAR-8) of 105%. It also gave a growth at 10 µM (RXF 393) of 114%.
Work on `CC(=O)Nc1cccc(NC(=O)c2ccc(C(=O)Nc3cc(CO)cc(NC(C)=O)c3)cc2)c1` yielded a growth at 10 µM (UACC-257) of 101%, a growth at 10 µM (SNB-19) of 112% and a growth at 10 µM (U-251) of 111%. The growth at 10 µM (SR) was 104%, the growth at 10 µM (CCRF-CEM) was 93% and the growth at 10 µM (MDA-MB-231) was 110%. It also gave a growth at 10 µM (DU-145) of 117%, a growth at 10 µM (ACHN) of 106% and a growth at 10 µM (OVCAR-3) of 126%. The growth at 10 µM (EKVX) was 112%, the growth at 10 µM (IGROV-1) was 110% and the growth at 10 µM (SK-MEL-2) was 88.1%. It also gave a growth at 10 µM (UO-31) of 100%, a growth at 10 µM (MDA-MB-435) of 105% and a growth at 10 µM (HT-29) of 109%. It also gave a growth at 10 µM (SK-OV-3) of 103%, a growth at 10 µM (HOP-62) of 106% and a growth at 10 µM (RPMI-8226) of 92%. For the same molecule, the growth at 10 µM (KM12) was 111%, the growth at 10 µM (OVCAR-5) was 108% and the growth at 10 µM (NCI-H226) was 97.1%. The growth at 10 µM (HCT-116) was 105%, the growth at 10 µM (COLO 205) was 111% and the growth at 10 µM (786-0) was 112%. It also gave a growth at 10 µM (SW-620) of 104%, a growth at 10 µM (K562) of 104% and a growth at 10 µM (UACC-62) of 101%. It also gave a growth at 10 µM (SK-MEL-5) of 103%, a growth at 10 µM (SK-MEL-28) of 111% and a growth at 10 µM (MDA-MB-468) of 110%. The growth at 10 µM (PC-3) was 101%, the growth at 10 µM (Malme-3M) was 107% and the growth at 10 µM (SF-268) was 103%. The growth at 10 µM (HCT-15) was 104%, the growth at 10 µM (MOLT-4) was 92.7% and the growth at 10 µM (NCI-H23) was 105%. The growth at 10 µM (LOX IMVI) was 103%, the growth at 10 µM (M14) was 101% and the growth at 10 µM (OVCAR-8) was 106%. It also gave a growth at 10 µM (RXF 393) of 106%.

Source: ChEMBL document CHEMBL4715697, “Synthesis and biological activity of benzamide DNA minor groove binders” (2016)
